From patent US20230270804A1, “ANTI-HYPERCHOLESTEROLEMIA COMPOSITION AND A METHOD OF MANUFACTURING THE SAME” (NBI BIOSCIENCES PRIVATE LIMITED, priority 2020, published 2023)
“Also recorded” adds a separate entry of the source.

Legend:
[1] = system: Creatine phosphokinase (CPK), Lactate dehydrogenase (LDH), SGOT and SGPT; experiment: Therapeutic study: CPK, LDH, SGOT, SGPT; format: in vivo, Wistar strain albino rats
Description: (§1) 1.5-2 ml blood sample was taken from retino-orbital chamber in vials for biochemical estimations at every 15 days. Investigations performed included detailed Total Cholesterol—TC (mg/dl), Triglyceride—TG (mg/dl), High Density Lipoprotein—HDL-C (mg/dl), Low Density Lipoprotein—LDL-C (mg/dl), Very Low-Density Lipoprotein—VLDL (mg/dl), WBC (10^3/u1), RBC (10^6/u1), Hb (g/dl), PCV (%), Reticulocyte (%), Platelet count 10^5/mm^3, Clotting time (Sec), Neutrophils, Lymphocyte, Monocyte and Eosinophil. The estimations were done with Ecoline kits from Erba Mannheim, ERBA diagnostics Mannheml, Germany using Semi Autoanalyzer RX50 of MicroLabs Instruments and COUNCELL21 of Tulip Diagnostics Pvt. Ltd. Lipid peroxidation (Plasma & Liver), HMG Co-Reductase, Creatine phosphokinase (CPK), Lactate dehydrogenase (LDH), SGOT and SGPT were estimated at the end of both the studies using the kits.

[2] = Prophylactic study (90 days): body weight; format: in vivo, Wistar strain albino rats; settings: for Average Body Weight: HFD+normal diet
Description: (§2) Wistar strain albino rats of body weight ranging from 190-225 g were selected for the present study. The temperature and humidity were kept at optimum (22+2° C.; 40-70% and animals were exposed to natural chronological day night cycles. The experiments were carried out in conformity with the Institutional Animal Ethics Committee.
(§3) The 6 groups were as follows: • 1. Normal Control • 2.

[3] = Therapeutic study (60 days treatment after 90 days HFD): body weight; format: in vivo, Wistar strain albino rats; settings: in g
Description: as §2, §3

[4] = system: heart, spleen, lungs, kidney, liver; experiment: Prophylactic study: histopathology (heart, spleen, lungs, kidney, liver); format: in vivo, Wistar strain albino rats; settings: HFD
Description: FIG. 1 depicts the histopathological images of heart.
FIG. 2 depicts the histopathological images of Spleen. […] However, this indicates the safety of the composition of the present invention on spleen.
FIG. 3 depicts the histopathological images of Lungs. […] However, this indicates the safety of the composition of the present invention on lungs.
FIG. 4 depicts the histopathological images of kidney. […] However, this indicates the safety of the composition of the present invention on kidney.
FIG. 5 depicts the histopathological images of liver. […] It also indicates the safety of the composition of the present invention on liver. The composition of the present invention was also found useful to prevent the deposition of the fat bodies.

[5] = Prophylactic study: organ weights after sacrifice; format: in vivo, Wistar strain albino rats; settings: HFD+normal diet
Description: The prophylactic study which lasted 90 days used 6 rats per group. […] The 6 groups were as follows: • 1. Normal Control • 2. High Fat Diet (HFD) 1 ml 1/d+Normal Diet • 3. High Fat Diet (HFD)+Normal Diet+the composition of the present invention (OD) • 4, High Fat Diet (HFD)+Normal Diet+the composition of the present invention (BD) • 5. […] The body weights were recorded to the nearest gram (g) with proper tare to 0.0000 with the subject at steady state on the weighing machine. The same weighing machine was used for all the subjects. The machine was tested with a known set of weights for any error.

[6] = system: heart, spleen, lungs, kidney, liver, Aorta; experiment: Therapeutic study: histopathology (heart, spleen, lungs, kidney, liver, aorta); format: in vivo
Description: FIG. 7 depicts the histopathological images of heart. […] FIG. 8 depicts the histopathological images of spleen. […] FIG. 9 depicts the histopathological images of lungs. […] FIG. 10 depicts the histopathological images of kidney. […] FIG. 11 depicts the histopathological images of liver.
The long-term rise in the electrolyte such as Na and are associated with blood pressure disorders impacting the heart.

[7] = Prophylactic study: HbA1c / blood glucose level; format: in vivo, Wistar strain albino rats; settings: HFD fed groups
[8] = system: Creatine phosphokinase (CPK), Lactate dehydrogenase (LDH), SGOT and SGPT; experiment: Prophylactic study: CPK, LDH, SGOT, SGPT; format: in vivo, Wistar strain albino rats
Description: as §1

[9] = HFD+normal diet, after sacrifice

Molecule CC(C)c1c(C(=O)Nc2ccccc2)c(-c2ccccc2)c(-c2ccc(F)cc2)n1CC[C@@H](O)C[C@@H](O)CC(=O)O [Statin, Atorvastatin] has a Creatine phosphokinase ([1]; HFD Continued) of 1.31 ± 0.08, an LDH ([1]; HFD Continued) of 288.32 ± 12.64 U/ml and an SGOT ([1]; HFD Continued) of 63.76 ± 2.92 U/ml. It also gave an SGPT ([1]; HFD Continued) of 53.82 ± 1.13 U/ml, an LDH ([1]; HFD Discontinued) of 284.07 ± 5.61 U/ml and an SGOT ([1]; HFD Discontinued) of 62.88 ± 3.43 U/ml. The SGPT ([1]; HFD Discontinued) was 64.69 ± 0.52 U/ml, the CPK value increase ([1]; therapeutic study) was 10% and the SGOT reduction ([1]; therapeutic study) was 16%. For the same molecule, the SGPT reduction ([1]; therapeutic study) was 5%, the “Average Body Weight” value ([2]; day 0) was 209.83 ± 26.39 gms and the “Average Body Weight” value ([2]; day 15) was 213.16 ± 27.47 gms. For the same molecule, the “Average Body Weight” value ([2]; day 30) was 209.10 ± 20.10 gms, the “Average Body Weight” value ([2]; day 45) was 223.83 ± 28.41 gms and the “Average Body Weight” value ([2]; day 60) was 222.6 ± 17.46 gms. The “Average Body Weight” value ([2]; day 75) was 223.05 ± 8.08 gms, the “Average Body Weight” value ([2]; day 90) was 229.72 ± 6.13 gms and the “maintenance of body weight” value ([2]; prophylactic study, after HFD treatment) was “not able to maintain the body weight”. The “Average Body Weight” value ([3]; HFD continued, day 0) was 275.33 ± 7.09, the “Average Body Weight” value ([3]; HFD continued, day 15) was 270.67 ± 7.37 and the “Average Body Weight” value ([3]; HFD continued, day 30) was 268.33 ± 2.52. For the same molecule, the “Average Body Weight” value ([3]; HFD continued, day 45) was 265.67 ± 6.51, the “Average Body Weight” value ([3]; HFD continued, day 60) was 262.33 ± 7.15 and the “Average Body Weight” value ([3]; HFD discontinued, day 0) was 270.33 ± 8.74. For the same molecule, the “Average Body Weight” value ([3]; HFD discontinued, day 30) was 264.33 ± 3.06, the “Average Body Weight” value ([3]; HFD discontinued, day 45) was 263.00 ± 5.57 and the “Average Body Weight” value ([3]; HFD discontinued, day 60) was 259.83 ± 6.27. For the same molecule, the histopathology of heart [4] was “relaxation in the cardiac muscles as the fat content was decreased”, the “histopathology of liver (fatty liver grade)” value ([4]; composition at OD and BD dose levels) was “dilation of hepatic portal triad was more evident; also recorded: from grade 2 to grade 1” and the Heart weight [5] was 2.79 ± 0.03 g/100 g bd · wt. The Intestine weight [5] was 3.54 ± 0.03, the Kidney weight [5] was 1.15 ± 0.03 g/100 g bd · wt and the Liver weight [5] was 3.90 ± 0.05 g/100 g bd · wt. The Lungs weight [5] was 1.96 ± 0.02 g/100 g bd · wt, the Spleen weight [5] was 0.65 ± 0.03 and the pancreas weight [5] was 0.90 ± 0.05 g/100 g bd · wt. The histopathology of heart ([6]; HFD) was “cardiac muscle were found stressed”, the aorta plaque reduction ([6]; HFD continued) was “mild” and the aorta plaque reduction ([6]; HFD discontinued) was “moderate reduction in the plaque”. For the same molecule, the “damage to the endothelial lining” value ([6]; aorta histopathology) was “mild damage to the endothelial lining”, the Blood glucose level [7] was “able to maintain Blood glucose level similar to normal diet group” and the Creatine phosphokinase [8, 9] was 1.33 ± 0.04 U/ml. It also gave an LDH [8, 9] of 278.50 ± 5.50 U/ml, an SGOT [8, 9] of 59.03 ± 1.49 U/ml and an SGPT [8, 9] of 55.63 ± 0.51 U/ml. The “Inhibition in SGPT activity” value ([8]; prophylactic study, composition twice a day) was 20%.
